Measurements taken from publication PMC9776381, “A Large-Scale High-Throughput Screen for Modulators of SERCA Activity” (Biomolecules, 2022).
Entries after “also recorded” stand apart in the source; their conditions may differ.

Experiments:
[1] = target: T1, SERCA1a (rabbit light skeletal SR vesicles) (Oryctolagus cuniculus, UniProt P04191); test: NADH-coupled Ca-ATPase activity assay, skeletal SR (CRC at pCa 5.4); assay type: biochemical; details: n = 3; for Skeletal SR ATPase Activity Percent Increase: maximal effect of CRC 0.05 to 50 µM, pCa 5.4, relative to DMSO, mean ± SD; for EC50: pCa 5.4, mean ± SD
T1 construct: rabbit muscles were freshly harvested from the back and hind leg of New Zealand White rabbits and purified using a sucrose gradient; from tissue; host or cells: rabbit (New Zealand White) back and hind leg skeletal muscle, light SR vesicles
Description: (§1) For skeletal SR, rabbit muscles were freshly harvested from the back and hind leg of New Zealand White rabbits and purified using a sucrose gradient. The resulting light skeletal SR contains 80% SERCA, as a proportion of total protein content. Cardiac SR vesicles were isolated from fresh porcine left ventricular tissue.
(§2) Functional assays were performed using rabbit light skeletal sarcoplasmic (SR) vesicles. For high-throughput NADH-coupled screening, assay mix containing a final concentration of 50 mM MOPS (pH 7.0), 100 mM KCl, 1 mM EGTA, 0.2 mM NADH, 1 mM phosphoenol pyruvate, 10 IU/mL of pyruvate kinase, 10 IU/mL of lactate dehydrogenase, 1 µM of the calcium ionophore A23187, 4 µg/mL skeletal SR, and added CaCl2 to obtain pCa 5.4 was dispensed into 384-well DIVERSet assay plates containing 50 nL of compound or DMSO using a FlexDrop Precision liquid dispenser (Perkin Elmer, Waltham, Massachusetts). Plates were sealed, covered from light, and incubated at room temperature for 20 min. The assay was then started by dispensing MgATP (termed “initiation mix”), to a final concentration of 5 mM in each well (80 µL total assay volume) with the FlexDrop liquid dispenser (Perkin Elmer). The time dependence of absorbance was measured at 340 nm in a SpectraMax Plus384 microplate spectrophotometer (Molecular Devices, Sunnyvale, CA). For follow-up concentration response curves of Hit compounds, 400 nL of either compound or DMSO was dispensed into each well using an Echo liquid dispenser (Beckman Coulter). Testing dose-dependent compound effects on rabbit skeletal SR vesicles was done using the same method, as described above in 384-well plates. Determining compound effects on cardiac SR vesicles was done in a similar method as above, with the exception of 10 µg/mL of cardiac SR incubated in assay mix consisting of a final concentration of 50 mM MOPS (pH 7.0), 100 mM KCl, 1 mM EGTA, 1 µM of the calcium ionophore A23187, and added CaCl2 to the desired free calcium values. After a 20 min incubation, the “initiation mix”, containing a final concentration of 0.2 mM NADH, 1 mM phosphoenol pyruvate, 10 IU/mL of pyruvate kinase, 10 IU/mL of lactate dehydrogenase, and 5mM MgATP, was dispensed into each well.
The initial screen assay was performed with compounds at 10 µM. To better study the selected Hit compounds for their activation potential, we performed ATPase analyses (in triplicate) over a range of Hit concentrations (0.05 to 50 µM), generating concentration-response curves (CRCs) to determine maximal effects and EC50 (Figure 2). We used the same Ca^2+ concentration (pCa 5.4) as in the screening assays, thus focusing on the effects on the maximal velocity of SERCA. Two of the selected Hits yielded no response in follow-up assays, probably due to a mismatch in chemical composition between the library compound and the subsequently ordered compound (DS95401435 and DS41547941). This type of discrepancy is a typical hurdle in the screening process. Each of the other 19 compounds produced a substantial increase in ATPase activity, ranging from 30% to 72% (Table 1 and Supporting Information, Figure S1), as expected due to similarity of the CRC assay to the initial screen.

[2] = target: T2, SERCA2a (cardiac SR vesicles) (Sus scrofa, UniProt P11607); test: NADH-coupled Ca-ATPase activity assay, cardiac SR (CRC at pCa 5.4); assay type: biochemical, porcine; details: pCa 5.4, mean ± SD, n = 3; for Cardiac SR ATPase Activity Percent Increase: maximal effect of CRC
T2 construct: Cardiac SR vesicles were isolated from fresh porcine left ventricular tissue; from tissue; host or cells: porcine left ventricular tissue, cardiac SR vesicles
Description: as §1, §2
While initial screening was performed in skeletal SR enriched with the SERCA1a isoform, high sequence and structural homology with the cardiac SERCA2a isoform predicts a potential for cross reactivity of the Hit compounds. To test this hypothesis, we performed ATPase analyses with cardiac SR microsomes, which are enriched for SERCA2a.

[3] = target: T3, SERCA1a (skeletal SR vesicles) (Oryctolagus cuniculus, UniProt P04191); test: Oxalate-supported Ca2+-uptake assay, skeletal SR (CRC at pCa 5.4); assay type: biochemical, rabbit; details: for Skeletal SR Ca^2+ Uptake Activity Percent Increase: maximal effect of CRC; for Skeletal SR Ca^2+ Uptake Activity Percent Increase / EC50: pCa 5.4, mean ± SD, dash = no observable effect; for EC50: read-out: Skeletal SR Ca^2+ Uptake Activity EC50; for Ca^2+ uptake effect (in words), SR type not given: uncoupling compounds, cluster 5, tissue not stated; for Effect on Ca^2+ uptake activity in skeletal SR (in words): pCa 5.4
T3 construct: rabbit muscles were freshly harvested from the back and hind leg of New Zealand White rabbits and purified using a sucrose gradient; from tissue; host or cells: rabbit (New Zealand White) back and hind leg skeletal muscle, light SR vesicles
Description: as §1
(§3) To determine compound effect on the Ca^2+-uptake activity of SERCA1a and SERCA2a, we used an oxalate-supported assay. A solution containing 50 mM MOPS (pH 7.0), 100 mM KCl, 30 mg/mL sucrose, 1 mM EGTA, 10 mM potassium oxalate, 2 µM Fluo-4, 30 µg/mL cardiac SR vesicles or 12 μg/mL skeletal SR vesicles, and CaCl2 calculated to reach the desired free [Ca^2+] was dispensed into 384-well black walled, transparent bottomed plates (Greiner Bio-One) containing the tested small molecule and incubated at 21 °C for 20 min while covered and protected from light. To start the reaction, MgATP was added to a final concentration of 5 mM, and the decrease in 485-nm excited fluorescence was monitored at 520 nm for 15 min using a FLIPR Tetra (Molecular Devices, San Jose, CA, USA).
While Ca^2+-dependent ATPase activity is a direct measure of SERCA activity, coupling of ATP hydrolysis to transport of Ca^2+ across the SR membrane is essential for the role of SERCA in cellular physiology. Therefore, we next asked whether our ATPase-based HTS assay could successfully identify compounds that also increase Ca^2+ uptake of SERCA.

[4] = target: T2, SERCA2a (cardiac SR vesicles); test: Oxalate-supported Ca2+-uptake assay, cardiac SR (CRC at pCa 5.4); assay type: biochemical, porcine; details: for Cardiac SR Ca^2+ Uptake Activity Percent Increase: maximal effect of CRC; for Cardiac SR Ca^2+ Uptake Activity Percent Increase / EC50: pCa 5.4, mean ± SD, dash = no observable effect; for EC50: read-out: Cardiac SR Ca^2+ Uptake Activity EC50
Description: as §1, §3
To determine whether the observed increases in SERCA2a ATPase activity translate to Ca^2+ uptake function, we applied our Ca^2+ transport assay to test our selected Hit compounds in cardiac SR (Table 1). Indeed, 16 of the 19 compounds yielded a clear increase in Ca^2+ uptake activity. In fact, eight compounds generated an increase at least 50% greater in cardiac SR than in skeletal SR. Three compounds had either an inhibitory or no effect on Ca^2+ transport, and two of these were also non-activating compounds in skeletal SR.

T1 sequence (P04191 1-994 isoform P04191-2): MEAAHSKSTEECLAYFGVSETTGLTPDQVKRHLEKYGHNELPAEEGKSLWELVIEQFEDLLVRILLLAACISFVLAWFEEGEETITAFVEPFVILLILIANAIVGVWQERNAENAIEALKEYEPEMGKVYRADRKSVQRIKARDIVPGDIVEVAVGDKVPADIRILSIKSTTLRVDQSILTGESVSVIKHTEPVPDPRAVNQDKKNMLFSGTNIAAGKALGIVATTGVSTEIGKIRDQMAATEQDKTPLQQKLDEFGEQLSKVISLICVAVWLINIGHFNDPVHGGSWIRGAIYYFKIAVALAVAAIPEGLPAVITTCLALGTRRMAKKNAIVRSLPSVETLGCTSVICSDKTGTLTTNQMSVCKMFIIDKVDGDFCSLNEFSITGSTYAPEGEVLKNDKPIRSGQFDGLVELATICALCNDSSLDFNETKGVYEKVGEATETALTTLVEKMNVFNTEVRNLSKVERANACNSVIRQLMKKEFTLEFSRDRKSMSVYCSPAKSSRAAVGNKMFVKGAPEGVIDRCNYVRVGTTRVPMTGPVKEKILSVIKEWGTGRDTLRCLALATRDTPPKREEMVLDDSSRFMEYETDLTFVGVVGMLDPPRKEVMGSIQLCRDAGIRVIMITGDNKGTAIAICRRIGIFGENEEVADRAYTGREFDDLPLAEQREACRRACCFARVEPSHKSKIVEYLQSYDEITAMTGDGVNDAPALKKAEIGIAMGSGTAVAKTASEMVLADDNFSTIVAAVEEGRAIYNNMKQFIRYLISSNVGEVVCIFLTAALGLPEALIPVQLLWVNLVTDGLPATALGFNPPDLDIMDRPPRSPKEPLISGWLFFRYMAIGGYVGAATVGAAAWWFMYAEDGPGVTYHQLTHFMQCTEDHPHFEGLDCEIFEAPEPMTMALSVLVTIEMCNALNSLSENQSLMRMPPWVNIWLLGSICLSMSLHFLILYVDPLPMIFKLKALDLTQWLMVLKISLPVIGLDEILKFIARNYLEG
T3 sequence (P04191 1-994 isoform P04191-2): as above
T2 sequence (P11607 1-997 isoform P11607-2): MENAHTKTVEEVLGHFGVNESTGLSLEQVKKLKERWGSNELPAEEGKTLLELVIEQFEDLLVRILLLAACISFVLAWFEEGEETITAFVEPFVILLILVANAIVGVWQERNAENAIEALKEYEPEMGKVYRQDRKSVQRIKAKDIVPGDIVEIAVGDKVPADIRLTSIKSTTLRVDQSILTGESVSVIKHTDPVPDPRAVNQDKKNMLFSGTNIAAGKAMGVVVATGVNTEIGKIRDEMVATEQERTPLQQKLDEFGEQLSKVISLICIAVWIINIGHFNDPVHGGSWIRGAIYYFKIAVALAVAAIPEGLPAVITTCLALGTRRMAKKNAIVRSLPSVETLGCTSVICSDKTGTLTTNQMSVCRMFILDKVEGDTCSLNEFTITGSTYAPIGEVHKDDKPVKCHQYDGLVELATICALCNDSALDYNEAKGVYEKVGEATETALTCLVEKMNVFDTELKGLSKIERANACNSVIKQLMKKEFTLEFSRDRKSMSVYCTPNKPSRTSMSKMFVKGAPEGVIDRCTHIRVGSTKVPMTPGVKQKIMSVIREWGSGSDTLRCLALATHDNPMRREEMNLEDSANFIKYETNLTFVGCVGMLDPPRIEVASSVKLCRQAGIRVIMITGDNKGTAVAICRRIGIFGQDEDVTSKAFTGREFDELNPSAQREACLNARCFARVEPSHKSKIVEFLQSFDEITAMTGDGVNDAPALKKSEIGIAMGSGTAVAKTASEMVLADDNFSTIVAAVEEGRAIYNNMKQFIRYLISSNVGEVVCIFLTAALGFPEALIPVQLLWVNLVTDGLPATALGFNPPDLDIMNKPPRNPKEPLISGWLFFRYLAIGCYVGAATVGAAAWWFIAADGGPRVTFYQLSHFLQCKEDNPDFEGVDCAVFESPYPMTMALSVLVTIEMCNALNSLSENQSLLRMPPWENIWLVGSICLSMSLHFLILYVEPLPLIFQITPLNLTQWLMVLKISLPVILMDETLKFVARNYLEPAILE

Row | Skeletal SR ATPase Activity Percent Increase [1] [%] | EC50 [1] [µM] | Cardiac SR ATPase Activity Percent Increase [2] [%] | EC50 [2] [µM] | Skeletal SR Ca^2+ Uptake Activity Percent Increase ([3]; n = 3) [%] | EC50 ([3]; n = 3) [nM] | Increase in Ca^2+ uptake in cardiac SR vs. skeletal [4] | Cardiac SR Ca^2+ Uptake Activity Percent Increase ([4]; n = 3) [%] | EC50 ([4]; n = 3) [nM] | Ca^2+ uptake effect (in words), SR type not given [3] | Compound classification from ATPase vs. Ca^2+ uptake CRCs, skeletal SR ([3]; skeletal SR, n = 3) | Effect on Ca^2+ uptake activity in skeletal SR (in words) ([3]; skeletal SR, listed as DS33804556) | Compound classification from ATPase vs. Ca^2+ uptake CRCs, cardiac SR ([4]; cardiac SR, n = 3) | SMILES | Effect on Ca^2+ uptake activity in skeletal SR (in words) ([3]; skeletal SR) | Effect on Ca^2+ uptake activity in cardiac SR (in words) ([4]; cardiac SR, pCa 5.4)
1 | 36 ± 4 | 3.2 ± 0.6 | 36 ± 4 | 2.9 ± 0.6 | 8 ± 2 | 1100 ± 600 | greater than 2 fold | 21 ± 10 | 1800 ± 2000 |  |  |  |  | CN(Cc1ccccc1)c1ncccc1CNc1ncccc1Cl [Compound 13] |  | 
2 | 25 ± 3 | 3.3 ± 0.6 | 56 ± 3 | 5.2 ± 0.5 | 8 ± 2 |  | greater than 2 fold | 28 ± 5 | 2500 ± 900 |  |  |  |  | COc1ccccc1CNc1nc(C(C)(C)C)nc2c1cnn2C [Compound 14] |  | 
3 | 30 ± 1 | 30 ± 12 | 46 ± 6 | 16 ± 3 |  |  |  | 6 ± 5 | 5000 ± 11000 | little to no Ca^2+ uptake effect |  |  |  | C=C(C)COc1cccc(C(=O)NCCn2cccn2)c1 [Compound 15] |  | 
4 | 25 ± 1 | 3 ± 0.3 | 26 ± 2 | 2.2 ± 0.4 | −10 ± 2 | 7000 ± 13000 |  | −27 ± 3 | 8900 ± 2000 | sizeable inhibitor effect | Uncoupling Compounds | inhibitory | Uncoupling Compounds | COc1ccc(CCNC(=O)c2oc3c(Cl)cc(C)cc3c2C)cc1 [Compound 16] | inhibition of Ca^2+ uptake activity; also recorded: inhibitor of Ca^2+ uptake | inhibition of Ca^2+ uptake activity; also recorded: inhibitor of Ca^2+ uptake
5 | 39 ± 1 | 5.2 ± 0.3 | 37 ± 1 | 4.3 ± 0.3 | 8.9 ± 0.1 | 1100 ± 300 |  | 12 ± 1 | 900 ± 200 |  |  |  |  | COc1cccc(-c2nn(-c3ccccc3)cc2CN(Cc2c(C)nn(C)c2C)C2CC2)c1 [Compound 18] |  | 
6 | 42 ± 2 | 7.3 ± 0.8 | 22 ± 2 | 6.3 ± 0.4 | 7.2 ± 0.1 | 1800 ± 700 |  | 8 ± 1 | 2400 ± 600 |  |  |  |  | OCc1ccccc1-c1ccc(-c2nc(CCc3ccccc3)no2)cn1 [Compound 19] |  | 
